{
  "source": "paper PMC11243693",
  "about": "“Synthesis and Biological Evaluation of New Compounds with Nitroimidazole Moiety” (Molecules, 2024)",
  "key": {"[1]": {"system": "Candida krusei ATCC 14243", "assay": "Broth microdilution, C. krusei ATCC 14243", "format": "cell-based", "conditions": "Ck 14243", "how_it_was_run": "(§1)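 MIC: A570 after 18 ± 2 h, 35 ± 2 °C. Medium: MH broth (bacterium) or MH + 2% glucose (yeasts). Serial 2-fold dilutions of compound, top solution 1000 µg/mL. Inoculum: 0.5 McFarland suspension diluted 10×. MBC/MFC: subculture onto MHA or MHA + 2% glc, 99.9% growth inhibition.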"}, "[2]": {"system": "Staphylococcus aureus ATCC 43300 methicillin-resistant MRSA", "assay": "Broth microdilution, S. aureus ATCC 43300 MRSA", "format": "cell-based", "conditions": "Sa 43300 MRSA", "how_it_was_run": "as §1"}, "[3]": {"system": "Staphylococcus aureus ATCC 25923", "assay": "Broth microdilution, S. aureus ATCC 25923", "format": "cell-based", "conditions": "Sa 25923", "how_it_was_run": "as §1"}, "[4]": {"system": "Candida tropicalis ATCC 1369", "assay": "Broth microdilution, C. tropicalis ATCC 1369", "format": "cell-based", "conditions": "Ct 1369", "how_it_was_run": "as §1"}, "[5]": {"system": "Candida glabrata ATCC 90030", "assay": "Broth microdilution, C. glabrata ATCC 90030", "format": "cell-based", "conditions": "Cg 90030", "how_it_was_run": "as §1"}, "[6]": {"system": "Candida parapsilosis ATCC 22019", "assay": "Broth microdilution, C. parapsilosis ATCC 22019", "format": "cell-based", "conditions": "Cp 22019", "how_it_was_run": "as §1"}, "[7]": {"system": "Bacillus cereus ATCC 10876", "assay": "Broth microdilution, B. cereus ATCC 10876", "format": "cell-based", "conditions": "Bc 10876", "how_it_was_run": "as §1"}, "[8]": {"system": "Candida lusitaniae ATCC 3449", "assay": "Broth microdilution, C. lusitaniae ATCC 3449", "format": "cell-based", "conditions": "Cl 3449", "how_it_was_run": "as §1"}, "[9]": {"system": "Staphylococcus epidermidis ATCC 12228", "assay": "Broth microdilution, S. epidermidis ATCC 12228", "format": "cell-based", "conditions": "Se 12228", "how_it_was_run": "as §1"}, "Candida spp.": {"system": "Candida spp.", "assay": "Broth microdilution, Candida spp.", "format": "cell-based", "conditions": "range over both strains and the listed compounds", "description": "The antibacterial activity of the obtained thiosemicarbazides and hydrazide–hydrazones was determined by evaluating their ability to inhibit microbial growth in vitro using the broth microdilution method, according to the guidelines of the European Committee on Antimicrobial Susceptibility Testing (EUCAST). The method involved the preparation of microbial suspensions with a standardized density of 0.5 on the McFarland scale (equivalent to 1.5 × 10^8 colony-forming units/mL for bacteria and […] for fungi). A solution of the test substances was then prepared (initial concentration 1000 µg/mL, diluted in sterile Mueller-Hinton broth for bacteria or Mueller-Hinton with 2% glucose for fungi). The test was carried out in 96-well polystyrene flat-bottom plates (Medlab, Poland) with 100 µL of appropriate sterile microbiological medium in each well. The first wells were filled with 200 µL of the test substance, diluted to the initial concentration, and then double-decreasing dilutions were made under aseptic conditions using an automatic pipette. The final step was the addition of a 10-fold diluted microbial suspension of 2 µL. At the same time, the following controls were included: (a) medium control (100 µL of sterile medium without microorganisms added), (b) microbial viability control, (c) test substance control (dilutions without added micro-organisms), (d) positive control of the drug used in the clinic. The plates thus prepared were incubated for 18 ± 2 h at 35 ± 2 °C under conditions optimal for the growth of the test microorganisms. After incubation, the spectrophotometric absorbance at 570 nm in each well of the plate was read. The aim of this part of the study was to determine two parameters: the minimum inhibitory concentration (MIC) and the minimum bactericidal or fungicidal concentration (MBC/MFC) of the test compound. […] The MBC value was determined by adding 5 µL of the contents of each well of the plate to solid sterile MHA or MHA + 2%glc medium for bacteria and fungi, respectively. The area on the plate where 99.9% inhibition of microbial growth was observed indicated the lethal concentration. In addition, the quotient MBC(MFC)/MIC could be determined to assess the nature of the activity of the test substance. If MBC(MFC)/MIC was <4, the test substance was bactericidal/fungicidal, whereas if MBC(MFC)/MIC was ≥4, it was bacteriostatic/fungistatic. Amoxicillin (Glentham Life Sciences, USA) and nystatin (Glentham Life Sciences, USA) were used as the controls for this assay.\nThe test was performed either on bacteria, comprising: Gram-positive (Staphylococcus aureus ATCC 25923, Staphylococcus aureus ATCC 6538, Staphylococcus aureus ATCC 43300 methicillin-resistant MRSA, Staphylococcus epidermidis ATCC 12228, Micrococcus luteus ATCC 10240, Bacillus subtilis ATCC 6633, Bacillus cereus ATCC 10876) and Gram-negative (Escherichia coli ATCC 25922, Pseudomonas aeruginosa ATCC 27853, Proteus mirabilis ATCC 12453, Klebsiella pneumoniae ATCC 13883) or yeast (Candida parapsilosis ATCC 22019, Candida glabrata ATCC 90030, Candida krusei ATCC 14243, Candida glabrata ATCC 15126, Candida tropicalis ATCC 1369, Candida auris CDC B11903, Candida lusitaniae ATCC 3449) reference strains from the American Type Culture Collection (ATCC) or the Centers for Disease Control and Prevention (CDC)."}, "Gram-positive bacteria": {"system": "Gram-positive bacteria", "assay": "Broth microdilution, Gram-positive bacteria", "format": "cell-based", "conditions": "strains as named in the sentence", "description": "The antibacterial activity of the obtained thiosemicarbazides and hydrazide–hydrazones was determined by evaluating their ability to inhibit microbial growth in vitro using the broth microdilution method, according to the guidelines of the European Committee on Antimicrobial Susceptibility Testing (EUCAST). The method involved the preparation of microbial suspensions with a standardized density of 0.5 on the McFarland scale (equivalent to 1.5 × 10^8 colony-forming units/mL for bacteria and […] for fungi). A solution of the test substances was then prepared (initial concentration 1000 µg/mL, diluted in sterile Mueller-Hinton broth for bacteria or Mueller-Hinton with 2% glucose for fungi). The test was carried out in 96-well polystyrene flat-bottom plates (Medlab, Poland) with 100 µL of appropriate sterile microbiological medium in each well. […] After incubation, the spectrophotometric absorbance at 570 nm in each well of the plate was read. […] The MBC value was determined by adding 5 µL of the contents of each well of the plate to solid sterile MHA or MHA + 2%glc medium for bacteria and fungi, respectively. […] In addition, the quotient MBC(MFC)/MIC could be determined to assess the nature of the activity of the test substance. […]"}, "[10]": {"system": "Candida glabrata ATCC 15126", "assay": "Broth microdilution, C. glabrata ATCC 15126", "format": "cell-based", "conditions": "Cg 15126", "how_it_was_run": "as §1"}, "[11]": {"system": "Bacillus subtilis ATCC 6633", "assay": "Broth microdilution, B. subtilis ATCC 6633", "format": "cell-based", "conditions": "Bs 6633", "how_it_was_run": "as §1"}, "Candida auris CDC B11903": {"system": "Candida auris CDC B11903", "assay": "Broth microdilution, C. auris CDC B11903", "format": "cell-based", "conditions": "Ca B11903", "how_it_was_run": "as §1"}, "[12]": {"system": "Staphylococcus aureus ATCC 6538", "assay": "Broth microdilution, S. aureus ATCC 6538", "format": "cell-based", "conditions": "Sa 6538", "how_it_was_run": "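EUCAST broth microdilution: inoculum 0.5 McFarland, 10-fold diluted; Mueller-Hinton broth (bacteria) or MH + 2% glucose (yeast); twofold dilutions from 1000 µg/mL; 18 ± 2 h at 35 ± 2 °C, A570 read for MIC. MBC/MFC from subculture on MHA or MHA + 2% glc (99.9% kill).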"}, "[13]": {"system": "Micrococcus luteus ATCC 10240", "assay": "Broth microdilution, M. luteus ATCC 10240", "format": "cell-based", "conditions": "Ml 10240", "how_it_was_run": "as §1"}, "[14]": {"system": "normal and cancer cell lines", "assay": "MTT assay, normal and cancer cell lines", "format": "cell-based, human", "conditions": "in words, 1 to 100 µM, 24 h", "description": "Colon cancer (SW480), breast adenocarcinoma (MDA-MB-231), lung carcinoma (A-549), prostate cancer (PC3), and immortal keratinocyte (HaCaT) cell lines of human origin were acquired from the American Type Culture Collection (ATCC). The recommended culture media and protocols provided by ATCC were as follows: SW480 were cultured in Minimum Essential Medium (MEM), MDA-MB-231, A-549, and HaCaT cells were cultured in Dulbecco’s Modified Eagle Medium (DMEM), while PC3 was cultured in Roswell Park Memorial Institute Medium (RPMI). The culture media were supplemented with 10% fetal bovine serum (FBS), penicillin (100 U/mL), and streptomycin (100 μg/mL). Cells were maintained in a humidified incubator at 37 °C with 5% CO2. Passaging was carried out upon reaching 80–90% confluence using 0.25% trypsin (Gibco Life Technologies, New York, NY, USA) treatment prior to experimentation.\nCell viability was assessed utilizing the MTT assay, which relies on the conversion of 3-(4,5-dimethylthiazol-2-yl)-2,5-diphenyltetrazolium bromide salt (MTT) to formazan crystals by mitochondrial dehydrogenases in viable cells. […] The absorbance of the resulting solution was measured at 570 nm using a UVM 340 reader (ASYS Hitech GmbH, Seekirchen am Wallersee, Austria). IC50 values were determined using GraphPad software (GraphPad Prism 8 Software)."}, "[15]": {"conditions": "<4 bactericidal, ≥4 bacteriostatic"}},
  "data": [
    {"smiles": "Cn1cc([N+](=O)[O-])nc1C(=O)NNC(=S)Nc1ccc(C(F)(F)F)cc1", "note": "[Compound 14]", "values": [
      {"measurement": "MIC", "setting": "[1]", "value": ">1000", "unit": "µg/mL"},
      {"measurement": "MBC", "setting": "[2]", "value": 500, "unit": "µg/mL"},
      {"measurement": "MIC", "setting": "[2]", "value": 62.5, "unit": "µg/mL"},
      {"measurement": "MBC", "setting": "[3]", "value": ">1000", "unit": "µg/mL"},
      {"measurement": "MIC", "setting": "[3]", "value": 31.25, "unit": "µg/mL"},
      {"measurement": "MFC", "setting": "[4]", "value": 500, "unit": "µg/mL"},
      {"measurement": "MIC", "setting": "[4]", "value": 500, "unit": "µg/mL"},
      {"measurement": "MFC/MIC Ratio", "setting": "[4]; <4 fungicidal, ≥4 fungistatic", "value": 1},
      {"measurement": "MIC", "setting": "[5]", "value": ">1000", "unit": "µg/mL"},
      {"measurement": "MIC", "setting": "[6]", "value": ">1000", "unit": "µg/mL"},
      {"measurement": "MBC", "setting": "[7]", "value": 250, "unit": "µg/mL"},
      {"measurement": "MIC", "setting": "[7]", "value": 31.25, "unit": "µg/mL"},
      {"measurement": "MBC/MIC Ratio", "setting": "[7]; [15]", "value": 8},
      {"measurement": "MIC", "setting": "[8]", "value": ">1000", "unit": "µg/mL"},
      {"measurement": "MBC", "setting": "[9]", "value": 500, "unit": "µg/mL"},
      {"measurement": "MIC", "setting": "[9]", "value": 31.25, "unit": "µg/mL"},
      {"measurement": "MBC/MIC Ratio", "setting": "[9]; [15]", "value": 16},
      {"measurement": "MBC (range, C. parapsilosis ATCC 22019 and C. tropicalis ATCC 1369)", "setting": "Candida spp.", "value": "500 to 1000", "unit": "µg/mL"},
      {"measurement": "MIC (range, C. parapsilosis ATCC 22019 and C. tropicalis ATCC 1369)", "setting": "Candida spp.", "value": "62.5 to 1000", "unit": "µg/mL"},
      {"measurement": "MIC (range or value for several Gram-positive strains)", "setting": "Gram-positive bacteria", "value": "31.25 to 62.5", "unit": "µg/mL"},
      {"measurement": "MIC", "setting": "[10]", "value": ">1000", "unit": "µg/mL"},
      {"measurement": "MBC", "setting": "[11]", "value": 31.25, "unit": "µg/mL"},
      {"measurement": "MIC", "setting": "[11]", "value": 31.25, "unit": "µg/mL"},
      {"measurement": "MBC/MIC Ratio", "setting": "[11]; [15]", "value": 1},
      {"measurement": "MIC", "setting": "Candida auris CDC B11903", "value": ">1000", "unit": "µg/mL"},
      {"measurement": "MBC", "setting": "[12]", "value": 1000, "unit": "µg/mL"},
      {"measurement": "MIC", "setting": "[12]", "value": 62.5, "unit": "µg/mL"},
      {"measurement": "MBC", "setting": "[13]", "value": 500, "unit": "µg/mL"},
      {"measurement": "MIC", "setting": "[13]", "value": 62.5, "unit": "µg/mL"},
      {"measurement": "MBC/MIC Ratio", "setting": "[13]; [15]", "value": 8}
    ]},
    {"smiles": "COc1cc(C=NNC(=O)c2nc([N+](=O)[O-])cn2C)ccc1O", "note": "[Compound 32, N’-[(4-hydroxy-3-methoxyphenyl)methylidene]-1-methyl-4-nitro-1H-imidazole-2-carbohydrazide]", "values": [
      {"measurement": "melting point", "value": "241 to 243", "unit": "°C"},
      {"measurement": "cytotoxic potential on normal and cancer cell lines", "setting": "[14]", "value": "did not show cytotoxic activity"}
    ]},
    {"smiles": "COc1cc(O)ccc1C=NNC(=O)c1nc([N+](=O)[O-])cn1C", "note": "[Compound 33, N’-[(4-hydroxy-2-methoxyphenyl)methylidene]-1-methyl-4-nitro-1H-imidazole-2-carbohydrazide]", "values": [
      {"measurement": "melting point", "value": "233 to 235", "unit": "°C"},
      {"measurement": "cytotoxic potential on normal and cancer cell lines", "setting": "[14]", "value": "did not show cytotoxic activity"}
    ]}
  ]
}
